Experimental findings from ChEMBL document CHEMBL2401610, “N-Benzyloxycarbonyl-S-(2,4-dinitrophenyl)glutathione dibutyl diester is inhibitory to melarsoprol resistant cell lines overexpressing the T. bruceiMRPA transporter” (Bioorg Med Chem Lett, 2013) are described below.

By IC50 is commonly meant the concentration that inhibits the measured activity by half. A higher IC50 goes with weaker potency in that assay.

Experiment [1] relates to Trypanosoma brucei brucei. As to the kind of experiment: Resistant factor, ratio of IC50 for bloodstream form of Trypanosoma brucei brucei expressing TbMRPA protein to IC50 for bloodstream form of wild type Trypanosoma brucei 247. The class given is functional.
Experiment [2] deals with Trypanosoma brucei brucei. As to the kind of experiment: Antitrypanosomal activity against bloodstream form of Trypanosoma brucei brucei expressing TbMRPA protein after 3 days by microplate assay. The class given is functional, organism-based. Conditions: 72 h.
The subject of experiment [3] is Trypanosoma brucei brucei. As to the kind of experiment: Antitrypanosomal activity against bloodstream form of wild type Trypanosoma brucei brucei 247 after 3 days by microplate assay. The class given is functional, organism-based. Conditions: Trypanosoma brucei, 247, 72 h.

Regarding `CCCCOC(=O)CNC(=O)[C@H](CSc1ccc([N+](=O)[O-])cc1[N+](=O)[O-])NC(=O)CC[C@H](NC(=O)OCc1ccccc1)C(=O)OCCCC`, the “Ratio IC50” value in experiment [1] is listed as 1.4. The IC50 amounted to 6.5 µM in experiment [2] and 4.5 µM in experiment [3].

Regarding `COC(=O)CNC(=O)[C@H](CSC(=O)c1ccc(Br)cc1)NC(=O)CC[C@H](NC(=O)OCc1ccccc1)C(=O)OC`, in experiment [1], the “Ratio IC50” value amounted to 16.6. Moreover, the IC50 in experiment [2] is 58 µM; in experiment [3], 3.5 µM.

Consider `O=C(O)CNC(=O)[C@H](CSC(=O)c1ccc(Br)cc1)NC(=O)CC[C@H](NC(=O)OCc1ccccc1)C(=O)O`, for which, in experiment [1], the “Ratio IC50” value is reported as 182. Moreover, the IC50 came out at 785 µM in experiment [2] and 4.3 µM in experiment [3].

Consider `N[C@@H](CCC(=O)N[C@@H](CSC(=O)c1ccc(Br)cc1)C(=O)NCC(=O)O)C(=O)O`, for which the “Ratio IC50” value in experiment [1] is 1.8. Besides, the IC50 was determined as 163 µM in experiment [2] and 87.5 µM in experiment [3].

As to `Nc1nc(N)nc(Nc2ccc([As]3SCC(CO)S3)cc2)n1` (stereo not drawn) [MELARSOPROL], the “Ratio IC50” value in experiment [1] turned out to be 10.
